Measured values published in BigSolDB 2.1.

O=C(Nc1ccc(F)cc1F)c1cccnc1Oc1cccc(C(F)(F)F)c1
solubility (mole fraction)
Settings | 278.15 K | 283.15 K | 288.15 K | 293.15 K | 298.15 K | 303.15 K | 308.15 K | 313.15 K | 318.15 K | 323.15 K
in acetone | 0.00903 | 0.0107 | 0.0127 | 0.0152 | 0.018 | 0.021 | 0.0247 | 0.029 | 0.0339 | 0.0408
in cyclohexane | – | 0.000103 | 0.000162 | 0.000229 | 0.000334 | 0.000458 | 0.000613 | 0.000806 | 0.00112 | 0.00147
in ethanol | 0.000251 | 0.000332 | 0.00043 | 0.000545 | 0.000681 | 0.000857 | 0.00107 | 0.00139 | 0.00173 | 0.00214
in isopropanol | 4.65e-05 | 7.36e-05 | 0.000116 | 0.000183 | 0.000282 | 0.000431 | 0.000665 | 0.001 | 0.00152 | 0.0022
in methanol | 0.000235 | 0.000293 | 0.000377 | 0.000474 | 0.0006 | 0.00075 | 0.000938 | 0.00117 | 0.00147 | 0.00187
in toluene | 0.00513 | 0.00638 | 0.00779 | 0.00954 | 0.0116 | 0.0142 | 0.0177 | 0.0215 | 0.0252 | 0.0303
